Literature values in patent US12133911B2, “Formulations to achieve rapid dissolution of drug from spray-dried dispersions in capsules” (Capsugel Belgium NV, priority 2015, dated 2024).

settings: molality (moles of solute per unit mass) of a saturated solution in water

SMILES	Water Solub.
[Cl-].[K+] [KCl, potassium chloride]	9.40 mol/kg
O=C(CO)[C@@H](O)[C@H](O)[C@H](O)CO [fructose]	3.89 mol/kg
OC[C@@H](O)[C@@H](O)[C@H](O)[C@H](O)CO [mannitol]	0.99 mol/kg
OC[C@@H](O)[C@@H](O)[C@H](O)[C@@H](O)CO [sorbitol]	4.56 mol/kg
OC[C@@H](O)[C@H](O)[C@@H](O)CO [xylitol]	4.11 mol/kg
